These results are taken from patent publication US9889144B2, “Abiraterone acetate formulation and methods of use” (iCeutica Inc., priority 2013, dated 2018).

The nature of data set [1]: Abiraterone acetate stability with and without milling, total impurities by HPLC. It counts as physicochemical. To be noted: 80° C., 4 hrs. From the text: The impurity growth in the DPI and tablets containing fine particle abiraterone acetate is due to oxidative degradation of abiraterone acetate. […] The faster degradation in tablets containing fine particle abiraterone acetate could arise from a number of sources, including, but not limited to: greater surface area of the API, higher proportion of excipient relative to the API, and differences in excipients.

For data set [2] the following is noted: cited from earlier work.

Turning to `CC(=O)O[C@H]1CC[C@@]2(C)C(=CC[C@@H]3[C@@H]2CC[C@]2(C)C(c4cccnc4)=CC[C@@H]32)C1` [Abiraterone Acetate (API), 17-(3-Pyridyl) androsta-5, acetate], the “Total impurities by HPLC” value is recorded as 0.23 % AUC in data set [1] (Milling none) and 0.17 % AUC in data set [1] (SPEX shaker mill). The water solubility entry in data set [2] is “poorly water soluble”.
